Experimental data from US20100267561A1, “HERBICIDAL PYRIDAZINONE DERIVATIVES” (priority 2007, published 2010).
Where two headings read alike, the source gives them in different places.

Experiments:
Assay type in all cases: in vivo
[1] = system: barnyardgrass (Echinochloa crus-galli); assay: Test A pre-/postemergence plant response; details: Echinochloa crus-galli, 240 h, read-out: Plant response rating, Barnyardgrass; for pest or weed control at 31 g/ha: 31 g ai/ha; for pest or weed control at 125 g/ha: 125 g ai/ha
Summary of the method: (§1)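 Ratings are visual, 0–100, where 100 means complete control and 0 no effect, taken roughly 10 days after treatment by comparison with untreated controls. Formulation: non-phytotoxic solvent mixture with surfactant.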

corn (Zea mays) = assay: Test A pre-/postemergence plant response; details: Zea mays, 240 h; for Corn plant response rating (crop injury, 0 = no effect, 100 = complete kill) at 31 g/ha: 31 g ai/ha; for Corn plant response rating (crop injury, 0 = no effect, 100 = complete kill) at 125 g/ha: 125 g ai/ha
Summary of the method: as §1

[2] = system: giant foxtail (Setaria faberi); assay: Test A pre-/postemergence plant response; details: Setaria faberi, 240 h, read-out: Plant response rating, Foxtail, Giant; for pest or weed control at 31 g/ha: 31 g ai/ha; for pest or weed control at 125 g/ha: 125 g ai/ha
Summary of the method: as §1

[3] = system: large crabgrass (Digitaria sanguinalis); assay: Test A pre-/postemergence plant response; details: Digitaria sanguinalis, 240 h, read-out: Plant response rating, Crabgrass, Large; for pest or weed control at 31 g/ha: 31 g ai/ha; for pest or weed control at 125 g/ha: 125 g ai/ha
Summary of the method: as §1

[4] = system: pigweed (Amaranthus retroflexus); assay: Test A pre-/postemergence plant response; details: Amaranthus retroflexus, 240 h, read-out: Plant response rating, Pigweed; for pest or weed control at 31 g/ha: 31 g ai/ha; for pest or weed control at 125 g/ha: 125 g ai/ha
Summary of the method: as §1

[5] = system: wheat (Triticum aestivum); assay: Test A pre-/postemergence plant response; details: Triticum aestivum, 240 h, read-out: Plant response rating, Wheat; for plant injury at 31 g/ha: 31 g ai/ha; for plant injury at 125 g/ha: 125 g ai/ha
Summary of the method: as §1

[6] = system: barnyardgrass (Echinochloa crus-galli); assay: Test B flooded paddy test plant response; details: Echinochloa crus-galli, Flood (flooded paddy test), scale 0 to 100, 0 no effect, 100 complete control, read-out: Plant response rating, Barnyardgrass
Summary of the method: (§2)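 2-leaf plants; pots flooded 3 cm above soil; compound added to paddy water; depth maintained. Greenhouse 13–15 d. Visual rating vs controls, 0 (no effect) to 100 (complete control); dash = no result.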

[7] = system: ducksalad (Heteranthera limosa); assay: Test B flooded paddy test plant response; details: Heteranthera limosa, Flood (flooded paddy test), scale 0 to 100, 0 no effect, 100 complete control, read-out: Plant response rating, Ducksalad
Summary of the method: as §2

rice (Oryza sativa) = assay: Test B flooded paddy test plant response; details: Oryza sativa, Flood (flooded paddy test), scale 0 to 100, 0 no effect, 100 complete control, read-out: Plant response rating, Rice
Summary of the method: as §2

[8] = system: umbrella sedge (Cyperus difformis); assay: Test B flooded paddy test plant response; details: Cyperus difformis, Flood (flooded paddy test), scale 0 to 100, 0 no effect, 100 complete control, read-out: Plant response rating, Sedge, Umbrella
Summary of the method: as §2

[9] = post-emergence, Postemergence, 0 to 100 scale (0 no effect, 100 complete control)
[10] = post-emergence, Postemergence, 0 to 100 scale, 0 no effect, 100 complete control
[11] = pre-emergence, Preemergence, 0 to 100 scale, 0 is no effect, 100 is complete control
[12] = pre-emergence, Preemergence, 0 to 100 scale (0 no effect, 100 complete control)

Cc1nn(C)c(=O)c(-n2nc(-c3ccc(C(F)(F)F)cc3)cc2C)c1O [Compound 75, 5-hydroxy-2,6-dimethyl-4-[5-methyl-3-[4-(trifluoromethyl)phenyl]-1H-pyrazol-1-yl]-3(2H)-pyridazinone]
pest or weed control at 31 g/ha [1, 9]: 10% | pest or weed control at 125 g/ha [1, 10]: 90% | pest or weed control at 31 g/ha [1, 11]: 0% | pest or weed control at 125 g/ha [1, 12]: 80% | Corn plant response rating (crop injury, 0 = no effect, 100 = complete kill) at 31 g/ha (corn (Zea mays); [9]): 0% | Corn plant response rating (crop injury, 0 = no effect, 100 = complete kill) at 125 g/ha (corn (Zea mays); [10]): 90% | Corn plant response rating (crop injury, 0 = no effect, 100 = complete kill) at 31 g/ha (corn (Zea mays); [11]): 0% | Corn plant response rating (crop injury, 0 = no effect, 100 = complete kill) at 125 g/ha (corn (Zea mays); [12]): 0% | pest or weed control at 31 g/ha [2, 9]: 50% | pest or weed control at 125 g/ha [2, 10]: 80% | pest or weed control at 31 g/ha [2, 11]: 20% | pest or weed control at 125 g/ha [2, 12]: 80% | pest or weed control at 31 g/ha [3, 9]: 20% | pest or weed control at 125 g/ha [3, 10]: 80% | pest or weed control at 31 g/ha [3, 11]: 0% | pest or weed control at 125 g/ha [3, 12]: 40% | pest or weed control at 31 g/ha [4, 9]: 0% | pest or weed control at 125 g/ha [4, 10]: 0% | pest or weed control at 31 g/ha [4, 11]: 0% | pest or weed control at 125 g/ha [4, 12]: 0% | plant injury at 31 g/ha [5, 9]: 10% | plant injury at 125 g/ha [5, 10]: 70% | plant injury at 31 g/ha [5, 11]: 0% | plant injury at 125 g/ha [5, 12]: 20% | pest or weed control at 62 g/ha ([6]; 62 g ai/ha): 0% | pest or weed control at 250 g/ha ([6]; 250 g ai/ha): 0% | pest or weed control at 62 g/ha ([7]; 62 g ai/ha): 0% | pest or weed control at 250 g/ha ([7]; 250 g ai/ha): 0% | plant injury at 62 g/ha (rice (Oryza sativa); 62 g ai/ha): 0% | plant injury at 250 g/ha (rice (Oryza sativa); 250 g ai/ha): 0% | pest or weed control at 62 g/ha ([8]; 62 g ai/ha): 0% | pest or weed control at 250 g/ha ([8]; 250 g ai/ha): 0%
